In patent publication US9422557B2, “Methods and compositions for weed control” (Monsanto Technology LLC, priority 2011, dated 2016):

Tests used:
[1] = system: Glyphosate-sensitive Palmer amaranth (A. palmeri R-22) plants; experiment: Topical treatment of Palmer amaranth with pooled ssDNA ACCase oligonucleotides followed by clethodim; plant height; format: in vivo, Amaranthus palmeri; details: clethodim (SelectMax) 272 g ai/ha with 1% COC; ssDNA pool at 16 nmol applied 24 and 48 hours before herbicide where used; height followed up to twelve days after herbicide; four replications; FIG. 1
Procedure: (§1) Glyphosate-sensitive Palmer amaranth (A. palmeri R-22) plants where grown in the greenhouse (30/20 C day/night T; 14 hour photoperiod) in 4 inch square pots containing Sun Gro® Redi-Earth and 3.5 kg/cubic meter Osmocote® 14-14-14 fertilizer. Palmer amaranth plants at 5 to 10 cm in height were treated with a pool of eight 8 short (21-22mer) single-strand antisense oligo DNA polynucleotides (ssDNA) targeting ACCase shown in Table 2 at 16 nmol, formulated in 10 millimolar sodium phosphate buffer (pH 6.8) containing 2% ammonium sulfate and 0.5% Silwet L-77. Plants were treated manually by pipetting 10 μL of polynucleotide solution on four fully expanded mature leaves, for a total of 40 microliters of solution per plant. Twenty-four and forty-eight hours later, the plants were treated with clethodim (SelectMax®, 0.97 lb ai per gallon; ACCase inhibitor) at 272 g ai/ha, crop oil concentrate (COC) at 1% was added to the herbicide treatments. Four replications of each treatment were conducted. Plant height was determined just before ssDNA treatment and at intervals upto twelve days after herbicide treatments to determine effect of the oligonucleotide and herbicide treatments.

[2] = system: Glyphosate-sensitive Palmer amaranth (A. palmeri R-22) plants; experiment: Follow-up test of individual ACCase oligonucleotides with herbicide 24 hours later; growth effects; format: in vivo, Amaranthus palmeri; details: 4 nmol oligonucleotide per plant, four plants; herbicide applied 24 hours after the oligonucleotide treatment
Procedure: as §1
An additional test was conducted to determine which of the ACCase oligonucleotides was responsible for the result. […]

Row | Molecule | reduction in plant height relative to the untreated control [1] [%] | reduction of plant growth relative to untreated plants (average) [2] [%]
1 | CCSC(C)CC1CC(=O)C(C(CC)=NOC/C=C/Cl)=C(O)C1 (centres unmarked) [clethodim, 2-[1-[[[(2E)-3-chloro-2-propen-1-yl]oxy]imino]propyl]-5-[2-(ethylthio)propyl]-3-hydroxy-2-cyclohexen-1-one] | 0 | 
2 | oligo6: single-strand antisense DNA oligo targeting ACCase, GCACCACGAGGATCACAAGAA (DNA, backbone and methylation of C not given here; listed as Amaranthus palmeri) |  | 40
